Assay results from publication PMC4261083, “An atypical residue in the pore of Varroa destructor GABA-activated RDL receptors affects picrotoxin block and thymol modulation” (Insect Biochemistry and Molecular Biology, 2014).
Numbering of substitutions follows the chain as printed.

Legend:
Format in all cases: cell-based
[1] = target: T1, A20′S mutant Drosophila RDL receptor (Drosophila melanogaster, UniProt P25123, A319S); assay: GABA activation of RDL receptors, two electrode voltage clamp in Xenopus oocytes
T1 construct: expressed in transfected cells; host or cells: Xenopus laevis oocytes injected with cRNA
T1 sequence (P25123 45-606 A319S): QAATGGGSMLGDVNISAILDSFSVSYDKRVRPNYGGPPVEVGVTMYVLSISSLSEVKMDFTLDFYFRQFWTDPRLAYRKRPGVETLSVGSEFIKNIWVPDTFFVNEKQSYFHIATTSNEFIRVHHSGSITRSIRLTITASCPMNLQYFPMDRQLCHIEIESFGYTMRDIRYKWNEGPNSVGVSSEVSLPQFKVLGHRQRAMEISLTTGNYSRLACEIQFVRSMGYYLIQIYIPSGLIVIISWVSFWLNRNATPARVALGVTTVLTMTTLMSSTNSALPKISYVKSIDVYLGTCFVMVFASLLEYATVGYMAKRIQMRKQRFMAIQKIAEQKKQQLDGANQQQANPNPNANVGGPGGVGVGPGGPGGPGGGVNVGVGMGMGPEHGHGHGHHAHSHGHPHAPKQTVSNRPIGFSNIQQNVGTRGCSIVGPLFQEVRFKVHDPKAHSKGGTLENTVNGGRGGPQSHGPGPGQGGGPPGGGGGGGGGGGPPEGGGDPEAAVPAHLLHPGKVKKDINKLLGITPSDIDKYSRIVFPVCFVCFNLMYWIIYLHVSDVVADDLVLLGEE
Experimental: (§1) X. laevis oocyte-positive females were purchased from NASCO (Fort Atkinson, Wisconsin, USA) and maintained according to standard methods. Harvested stage V-VI Xenopus oocytes were washed in four changes of ND96 (96 mM NaCl, 2 mM KCl, 1 mM MgCl2, 1 mM CaCl2, 5 mM HEPES, pH 7.5), de-folliculated in 1.5 mg ml^−1 collagenase Type 1A for approximately 2 h, washed again in four changes of ND96 and stored in ND96 containing 2.5 mM sodium pyruvate, 0.7 mM theophylline and […].
(§2) Site directed mutagenesis was performed with the QuikChange mutagenesis kit (Agilent, La Jolla, CA). cRNA was transcribed in vitro from linearised pGEMHE cDNA template using the mMessage mMachine T7 Transcription kit (Ambion, Austin, Texas, USA). Stage V and VI oocytes were injected with 5 ng cRNA, incubated at 18 °C, and currents recorded 18–24 h post-injection.
(§3) Currents were recorded at 5 kHz and filtered at a frequency of 1 kHz. Micro-electrodes were fabricated from borosilicate glass (GC120TF-10, Harvard Apparatus, Edenbridge, Kent, UK) using a one stage horizontal pull (P-87, Sutter Instrument Company, California, USA) and filled with 3 M KCl. […] Oocytes were perfused with ND96 at a constant rate of 12 ml min^−1. Drug application was via a simple gravity fed system calibrated to run at the same rate.
(§4) Analysis and curve fitting was performed using Prism v5 (GraphPad Software, San Diego, California, USA). Concentration-response data for each oocyte was normalised to the maximum current for that oocyte. The mean and S.E.M. for a series of oocytes were fitted to the four parameter logistic equation in Prism.

[2] = target: T2, wild type Drosophila RDL receptor (Drosophila melanogaster, UniProt P25123); assay: as above
T2 construct: expressed in transfected cells; host or cells: Xenopus laevis oocytes injected with cRNA
T2 sequence (P25123 45-606): T1 sequence (P25123 45-606 A319S) with S275A
Experimental: as §1, §2, §3, §4

[3] = target: T3, T6′M mutant Drosophila RDL receptor (Drosophila melanogaster, UniProt P25123, T305M); assay: as above
T3 construct: expressed in transfected cells; host or cells: Xenopus laevis oocytes injected with cRNA
T3 sequence (P25123 45-606 T305M): T1 sequence (P25123 45-606 A319S) with T261M, S275A
Experimental: as §1, §2, §3, §4

[4] = target: T2, wild type Drosophila RDL receptor; assay: Thymol modulation of GABA concentration-response curves, two electrode voltage clamp in Xenopus oocytes; conditions: WT RDL
Experimental: as §1, §2, §3, §4

[5] = target: T3, T6′M mutant Drosophila RDL receptor; assay: as above
Experimental: as §1, §2, §3, §4

[6] = GABA EC50 control vs +100 μM thymol
[7] = GABA concentration-response in presence of 100 μM thymol

SMILES	GABA nH (Hill slope) [1]	GABA nH (Hill slope) [2]	GABA nH (Hill slope) [3]	Effect of thymol on GABA-induced responses ([4]; 100 μM thymol, 1 μM GABA)	Fold change in EC50 [4, 6]	% Imax [4, 7] [%]	Effect of thymol on GABA-induced responses ([5]; 100 μM thymol, at some GABA concentrations)	Fold change in EC50 [5, 6]	% Imax [5, 7] [%]
NCCCC(=O)O [GABA]	1.6 ± 0.4	1.6 ± 0.5	1.4 ± 0.2						
Cc1ccc(C(C)C)c(O)c1 [Thymol, thymol]				enhance	4.8	94 ± 3	inhibition	3.4	35 ± 9
